Source: publication PMC12018048, “Intranasal kisspeptin administration rapidly stimulates gonadotropin release in humans” (eBioMedicine, 2025)

How the values were obtained:
[1] = Safety assessments in healthy participants and patients (adverse events, blood pressure, heart rate); type: in vivo, human; settings: intranasal; for Side effects or adverse events (of any severity): all participants in all study groups (healthy men, healthy women, patients with HA)
Experimental: All studies commenced at 08:00 to control for circadian hormonal changes. Participants were instructed to abstain from alcohol, caffeine, and sexual activities from 22:00 preceding each study visit. On arrival, an intravenous cannula was inserted into one antecubital fossa, and blood was sampled at timepoints −30, −15, and 0 min, before intranasal administration of kisspeptin-54 or 0.9% saline (placebo). Following participant education (described below), healthy men self-administered the following 5 interventions under supervision in random order via the intranasal route: 3.2, 6.4, 12.8, and 25.6 nmol/kg of kisspeptin-54, or placebo. Healthy women and patients with HA attended for the same protocol comparing 12.8 nmol/kg of kisspeptin-54 and placebo in random order. After administration of kisspeptin-54 or placebo at timepoint 0 min, serum levels of LH, FSH, and testosterone (in men), or oestradiol and progesterone (in women) were measured every 15 min for 4 h. Heart rate, blood pressure, and the presence of adverse symptoms were recorded every 15 min.
The primary outcome measure was change in serum LH following intranasal administration of kisspeptin compared to placebo. The secondary outcome measures were changes in serum FSH, as well as testosterone [in men], and oestradiol and progesterone [in women] following intranasal administration of kisspeptin compared to placebo. In addition, safety assessments were performed that included adverse event recording, blood pressure, and heart rate measurements.

[2] = human, cited from earlier work
Experimental: This was a randomised, double-blinded, crossover, placebo-controlled clinical study (Fig. 1, Fig. 2, Fig. 3a). Participants were admitted to the Clinical Research Unit (Imperial College Healthcare NHS Trust) and completed five (in healthy men) or two (in healthy women and patients with HA) study visits. […] Study visits in healthy women were conducted in the follicular phase of the menstrual cycle (i.e., days 2–10 inclusive) to contr ... || page 10: Research Governance and Integrity Team Throughout the study there will be at least one physician available 24 hours per day via a direct line, with a second physician on back up, and a secondary direct line to one of the senior physicians. […] Kisspeptin is rapidly cleared (11, 12) and participants would not be anticipated to experience any delayed effects on completion of the study visit. The Chief Investigato ...

serum LH = settings: cited from earlier work
Experimental: This was the first study to examine the effects of intranasal kisspeptin administration on reproductive hormone secretion in humans. […] We have previously examined a single intravenous bolus of 6.4, 12.8, and 25.6 nmol/kg of kisspeptin-54 in healthy men.[59] In that study, peak LH levels occurred 4–6 h after intravenous kisspeptin administration with a maximal increase from baseline of 8–10 IU/L for the three doses tested.[59] In the current study, a far more rapid increase in serum LH was observed after intranasal kisspeptin for all four doses tested with peak LH stimulation (4.45 IU/L abo ...

plasma LH = assay: Intranasal kisspeptin-54, plasma LH in adult C57BL/6J male mice; type: in vivo, mouse; settings: for Peak plasma LH level / Integrated LH response, AUC: mean ± SEM; for Peak plasma LH level, mean difference vs placebo: two-way ANOVA; for Integrated LH response, AUC: sampling over 70 min
Experimental: Saline (placebo) or kisspeptin-54 were intranasally administered using a customised and unsharpened 2 mm long and 0.3 mm wide hypodermic needle (BD PrecisionGlide™; 30G; ref. 305106). Male mice were restrained and a single volume of 30 μL of the solution was delivered in one randomly chosen nostril with either 0.9% saline or different concentrations of kisspeptin-54 (1, 3, 12.8, 30, or 50 nM; equivalent to 0.001–0.05 nmol/kg). The protocol involved N = 5 mice per group, except concentrations 12.8 nM where N = 6 and 30 nM where N = 7. […] LH levels were assessed using a tail-tip serial blood sampling as previously reported.[64]^,[65] Briefly, samples containing 4 μL of whole blood were collected every 10 min over a 70-min-long period from each animal. The first sampling point was taken as baseline LH level (−5 min), and saline or kisspeptin-54 were administered at timepoint 0 min. Whole blood was collected into Eppendorf tubes pre-loaded with 50 μL of 0.1 M phosphate-buffered saline (PBS)-0.05% Tween, thoroughly mixed, and snap-frozen with dry ice and stored at −80 °C.
LH levels were measured using an established in-house and ultrasensitive mouse LH ELISA method as previously validated.[66] A primary coating antibody (bovine LHβ subunit, 518B7; L. Sibley; University of California, UC Davis, RRID AB_2756886) was used at a 1:1000 dilution in combination with a detection primary antibody (rabbit LH antiserum, AFP240580Rb, RRID AB_2665533; NIDDK- NHPP) used at 1:10,000 dilution, and a secondary horseradish peroxidase-conjugated antibody (goat anti-rabbit; Vector Laboratories, PI-1000, RRID AB_2336198) used at 1:10,000 dilution. The assay standard curve used a mouse LH-RP (AFP5306A, A. F. Parlow, National Hormone and Peptide Program; supplied by Golden West BioSolutions, California, USA; catalogue # TLIA1053.03). The assay sensitivity of this LH ELISA was 0.04 ng/mL, intra-assay coefficient of variation 4.1%, and inter-assay coefficient of variation 7.3%.
Statistical analyses were performed using GraphPad Prism (version 9.4.1). Data are presented as mean ± SEM. Normality of the data was determined using the Shapiro–Wilk test. The analysis considered increment in LH levels when average post-administration values were above significance (P < 0.05) compared to basal levels (−5 min) using repeated measures two-way ANOVA with Fishers least significant difference (LSD) test. Integrated LH response to kisspeptin-54 administration as indicated using the area under the curve (AUC) analysis when all peaks were above baseline values. The difference in AUC between groups was compared by one-way ANOVA with Fisher’s LSD test. In all cases, P < 0.05 was considered statistically significant.

Substance: Kisspeptin-54
- Side effects or adverse events (of any severity) [1]: without any side effects or adverse events
- Side effects or adverse events (of any severity) ([1]; listed as kisspeptin): no side effects or adverse events
- Effect on blood pressure or heart rate measurements ([1]; any of the doses administered, recorded every 15 min): no effect
- Intravenous half-life ([2]; study protocol (supplement 2)): 28 min
- Circulating half-life [2]: 27.6 min
- Maximal increase from baseline in LH (serum LH; healthy men, single intravenous bolus of 6.4, 12.8, and 25.6 nmol/kg): 8–10 IU/L
- Increase in serum LH, mean (serum LH; healthy volunteers, intravenous, standard deviation 0.4 IU/L): 10.2 IU/L
- LH AUC, mean difference vs kisspeptin 1 nM (plasma LH; intranasal 3 nM vs 1 nM): 3.6 ng·h/mL
- Time of peak LH level after intranasal administration (plasma LH; intranasal 12.8 nM): 25 min
- LH AUC, mean difference vs kisspeptin 1 nM (plasma LH; intranasal 12.8 nM vs 1 nM): 22.7 ng·h/mL
- LH AUC, mean difference vs kisspeptin 3 nM (plasma LH; intranasal 12.8 nM vs 3 nM): 19.1 ng·h/mL
- LH AUC, mean difference vs placebo (plasma LH; intranasal 12.8 nM vs placebo): 17.2 ng·h/mL
- Peak plasma LH level (plasma LH; intranasal 12.8 nM, at 25 min, N = 6): 1.9 ± 0.4 ng/mL
- Peak plasma LH level, mean difference vs placebo (plasma LH; intranasal 12.8 nM, at 25 min): 1.1 ng/mL
- Time of peak LH level after intranasal administration (plasma LH; intranasal 30 nM): 25 min
- LH AUC, mean difference vs kisspeptin 1 nM (plasma LH; intranasal 30 nM vs 1 nM): 74.2 ng·h/mL
- LH AUC, mean difference vs kisspeptin 3 nM (plasma LH; intranasal 30 nM vs 3 nM): 70.7 ng·h/mL
- LH AUC, mean difference vs kisspeptin 12.8 nM (plasma LH; intranasal 30 nM vs 12.8 nM): 51.6 ng·h/mL
- LH AUC, mean difference vs placebo (plasma LH; intranasal 30 nM vs placebo): 68.7 ng·h/mL
- Peak plasma LH level (plasma LH; intranasal 30 nM, at 25 min, N = 7): 3.6 ± 0.4 ng/mL
- Peak plasma LH level, mean difference vs placebo (plasma LH; intranasal 30 nM, at 25 min): 2.8 ng/mL
- Time of peak LH level after intranasal administration (plasma LH; intranasal 50 nM): 15 min
- LH AUC, mean difference vs kisspeptin 1 nM (plasma LH; intranasal 50 nM vs 1 nM): 92.8 ng·h/mL
- LH AUC, mean difference vs kisspeptin 3 nM (plasma LH; intranasal 50 nM vs 3 nM): 89.3 ng·h/mL
- LH AUC, mean difference vs kisspeptin 12.8 nM (plasma LH; intranasal 50 nM vs 12.8 nM): 70.2 ng·h/mL
- LH AUC, mean difference vs kisspeptin 30 nM (plasma LH; intranasal 50 nM vs 30 nM): 18.6 ng·h/mL
- LH AUC, mean difference vs placebo (plasma LH; intranasal 50 nM vs placebo): 87.3 ng·h/mL
- Peak plasma LH level (plasma LH; intranasal 50 nM, at 15 min, N = 5): 4.0 ± 1.0 ng/mL
- Peak plasma LH level, mean difference vs placebo (plasma LH; intranasal 50 nM, at 15 min): 2.9 ng/mL
- Integrated LH response, AUC (plasma LH; intranasal 30 μL of 1 nM, N = 5): 75.5 ± 6.3 ng·h/mL
- Integrated LH response, AUC (plasma LH; intranasal 30 μL of 3 nM, N = 5): 79.1 ± 5.8 ng·h/mL
- Integrated LH response, AUC (plasma LH; intranasal 30 μL of 12.8 nM, N = 6): 98.2 ± 15.5 ng·h/mL
- Integrated LH response, AUC (plasma LH; intranasal 30 μL of 30 nM, N = 7): 149.7 ± 13.3 ng·h/mL
- Integrated LH response, AUC (plasma LH; intranasal 30 μL of 50 nM, N = 5): 168.3 ± 38.5 ng·h/mL
- Adverse effects leading to pain, distress, or illness (plasma LH; intranasal, first 72-h follow-up period): did not observe any adverse effects
